# Structures can show the parent of a compound that is named as a salt.
# Legend:
# [1] = biological target: Thrombin (UniProt P00735); test: Determination of the inhibitory constants for thrombin (method of Stürzebecher et al. 1997); assay type: biochemical
# From the text: The Ki values are the average of at least three determinations.
# [2] = biological target: T1, factor Xa (Bos taurus, UniProt P00743); test: Determination of the inhibitory constants for factor Xa (chromogenic substrate Moc-D-Nle-Gly-Arg-pNA, Dixon method); assay type: biochemical, bovine; settings: for Ki: bovine factor Xa, 25° C., pH 8.0, average of at least three determinations
# T1 construct: purchased Diagnostic Reagents Ltd, Thame, GB
# T1 sequence (P00743 234-492 limits assumed): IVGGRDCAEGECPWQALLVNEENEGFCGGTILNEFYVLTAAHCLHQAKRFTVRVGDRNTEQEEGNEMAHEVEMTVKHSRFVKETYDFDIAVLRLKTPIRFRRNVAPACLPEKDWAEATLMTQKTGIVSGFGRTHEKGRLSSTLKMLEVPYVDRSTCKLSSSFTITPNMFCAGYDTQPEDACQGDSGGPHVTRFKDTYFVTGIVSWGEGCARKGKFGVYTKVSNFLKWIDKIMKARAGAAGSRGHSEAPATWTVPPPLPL
# T1 sequence (P00743 41-180 partner limits assumed): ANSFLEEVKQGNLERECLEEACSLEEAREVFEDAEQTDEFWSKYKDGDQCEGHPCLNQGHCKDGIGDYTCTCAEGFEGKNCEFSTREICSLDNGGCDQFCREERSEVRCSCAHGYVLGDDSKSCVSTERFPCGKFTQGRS
# Description: Determination of the inhibitory Effect
# To determine the inhibitory effect, 200 μl of this buffer (0.05 M 0.154 M NaCl, 5% Ethanol, pH 8.0; contains the inhibitor), 25 μl of substrate (Moc-D-Nle-Gly-Arg-pNA in H2O; Pentapharm Ltd., Basle, Switzerland) and 50 μl of factor Xa (bovine, Diagnostic Reagents Ltd, thame, GB) were incubated at 25° C. After 3 min, the reaction was stopped By adding 25 μl of acetic acid (50%), and the absorption at 405 nm was determined using a Microplate Reader (MR 5000, Dynatech, Denkendorf, Germany). The Ki values were Founder by the Dixon method (boichem. J. 55, 170-171, 1953) by linear regression using a Computer program. The Ki values are the average of at least three determinations. The Thrombin inhibitions was determined in analogy to a method described earlier (Stürzebecher et al., J. Med. Chem. 40, 3091-3099, 1997).
Structure (SMILES),Ki [1] [nM],selectivity ratio SR (SR = Ki thrombin/Ki factor Xa) [2],Ki [2] [nM]
"N=C(N)c1ccc(CNC(=O)CNC(=O)C(CCc2ccncc2)NS(=O)(=O)Cc2ccccc2)cc1 (racemic) [Compound 1, Bzls-D,L-homoAla(4-Pyr)-Gly-4Amba×2 TFA]",2000,690,2.9
"N=C(N)c1ccc(CNC(=O)CNC(=O)C(CCc2ccncc2)NS(=O)(=O)Cc2ccncc2)cc1 (racemic) [Compound 2, 4-PMs-D,L-homoAla(4-Pyr)-Gly-4Amba×3 Acetate]",3200,246,13
"N=C(N)c1ccc(CNC(=O)[C@H](CO)NC(=O)[C@@H](CCc2ccncc2)NS(=O)(=O)Cc2ccccc2)cc1 [Compound 3a, Bzls-D,L-homoAla(4-Pyr)-Ser-4Amba×2 TFA]",910,97,9.4
"N=C(N)c1ccc(CNC(=O)[C@H](CO)NC(=O)[C@H](CCc2ccncc2)NS(=O)(=O)Cc2ccccc2)cc1 [Compound 3b, Bzls-D,L-homoAla(4-Pyr)-Ser-4Amba×2 TFA]",4600,48.4,95
"N=C(N)c1ccc(CNC(=O)[C@H](CO)NC(=O)C(CCc2ccncc2)NS(=O)(=O)Cc2ccncc2)cc1 (stereo partly drawn) [Compound 4, 4-PMs-D,L-homoAla(4-Pyr)-Ser-4Amba×3 acetate]",6300,65,97
"N=C(N)c1ccc(CNC(=O)CNC(=O)[C@@H](CCc2ccc(O)cc2)NS(=O)(=O)Cc2ccccc2)cc1 [Compound 5, Bzls-d-homoTyr-Gly-4Amba×TFA]",1500,556,2.7
"N=C(N)c1ccc(CNC(=O)[C@H](CO)NC(=O)[C@@H](CCc2ccc(O)cc2)NS(=O)(=O)Cc2ccccc2)cc1 [Compound 6, Bzls-d-homoTyr-Ser-4Amba×TFA]",1400,74,19
"N=C(N)c1ccc(CNC(=O)[C@H](CO)NC(=O)[C@@H](CCc2ccccc2)NS(=O)(=O)Cc2ccncc2)cc1 [Compound 7, 4-PMs-dhomoPhe-Gly-4Amba×2 TFA]",3300,7.2,460
"N=C(N)c1ccc(CNC(=O)CNC(=O)[C@@H](CCc2ccccc2)NS(=O)(=O)Cc2ccccn2)cc1 [Compound 8, 2-PMs-d-homoPhe-Gly-4Amba×2 TFA]",4900,96,51
"N=C(N)c1ccc(CNC(=O)CNC(=O)[C@@H](CCc2ccccc2)NS(=O)(=O)Cc2cccnc2)cc1 [Compound 9, 3-PMs-dhomoPhe-Gly-4Amba×2 TFA]",5900,95,62
N=C(N)c1ccc(CNC(=O)CNC(=O)[C@@H](Cc2ccccc2)NS(=O)(=O)Cc2ccccc2)cc1 [Compound 10],68,2.6,26
N=C(N)c1ccc(CNC(=O)CNC(=O)[C@@H](CCc2ccccc2)NS(=O)(=O)Cc2ccccc2)cc1 [Compound 11],47,7.2,6.5
N=C(N)c1ccc(CNC(=O)CNC(=O)[C@H](CCc2ccccc2)NS(=O)(=O)Cc2ccccc2)cc1 [Compound 12],11000,31,360
CS(=O)(=O)N[C@H](CCc1ccccc1)C(=O)NCC(=O)NCc1ccc(C(=N)N)cc1 [Compound 13],1300,1.2,1100
N=C(N)c1ccc(CNC(=O)CNC(=O)[C@@H](CCc2ccccc2)NS(=O)(=O)Cc2ccncc2)cc1 [Compound 14],3600,45,80
N=C(N)c1ccc(CNC(=O)[C@H](CO)NC(=O)[C@@H](CCc2ccccc2)NS(=O)(=O)Cc2ccccc2)cc1 [Compound 15],600,15,40
COC(=O)Cc1ccc(CS(=O)(=O)N[C@H](CCc2ccccc2)C(=O)NCC(=O)NCc2ccc(C(=N)N)cc2)cc1 [Compound 16],1800,47,38
N=C(N)c1ccc(CNC(=O)CNC(=O)[C@@H](CCc2ccccc2)NS(=O)(=O)Cc2ccc(CC(=O)O)cc2)cc1 [Compound 17],14000,259,54
N=C(N)c1ccc(CNC(=O)CNC(=O)[C@@H](CCc2ccccc2)NS(=O)(=O)NC2CCCCC2)cc1.O=C(O)C(F)(F)F [Compound 18],5400,49,110
N=C(N)c1ccc(CNC(=O)CNC(=O)[C@@H](CCc2ccccc2)NS(=O)(=O)Cc2ccccc2N)cc1 [Compound 19],920,137,6.7

Structure (SMILES),Ki [1] [nM],selectivity ratio SR (SR = Ki thrombin/Ki factor Xa) [2],Ki [2] [nM]
N=C(N)c1ccc(CNC(=O)CNC(=O)[C@@H](CCc2ccccc2)NS(=O)(=O)Cc2ccccc2[N+](=O)[O-])cc1 [Compound 20],1200,46,26
N=C(N)c1ccc(CNC(=O)CNC(=O)[C@H](NS(=O)(=O)Cc2ccccc2)C2Cc3ccccc3C2)cc1 [Compound 21],150,5.2,29
N=C(N)c1ccc(CNC(=O)CNC(=O)[C@@H](CCc2ccncc2)NS(=O)(=O)Cc2ccccc2)cc1 [Compound 22],700,259,2.7
N=C(N)c1ccc(CNC(=O)CNC(=O)[C@@H](CNc2ccncc2)NS(=O)(=O)Cc2ccccc2)cc1 [Compound 23],2800,127,22
N=C(N)c1ccc(CNC(=O)CNC(=O)C(CCc2cccnc2)NS(=O)(=O)Cc2ccccc2)cc1 (stereo not shown) [Compound 24],2000,400,5
N=C(N)c1ccc(CNC(=O)CNC(=O)C(CCc2ccccn2)NS(=O)(=O)Cc2ccccc2)cc1 (stereo not shown) [Compound 25],2000,952,2.1
N=C(N)c1ccc(CNC(=O)[C@H](CCC(=O)O)NC(=O)[C@@H](CCc2ccncc2)NS(=O)(=O)Cc2ccc(N)cc2)cc1 [Compound 26],25000,14705,1.7
N=C(N)c1ccc(CNC(=O)CNC(=O)[C@@H](CCc2ccc(O)cc2)NS(=O)(=O)Cc2ccc(N)cc2)cc1 [Compound 27],560,295,1.9
N=C(N)c1ccc(CNC(=O)CNC(=O)C(CCc2ccncc2)NS(=O)(=O)Cc2ccc(N)cc2)cc1 (stereo not shown) [Compound 28],1000,454,2.2
N=C(N)c1ccc(CNC(=O)CNC(=O)[C@@H](CCc2ccccc2)NS(=O)(=O)Cc2ccc(N)cc2)cc1 [Compound 29],260,100,2.6
N=C(N)c1ccc(CNC(=O)[C@H](CCC(=O)O)NC(=O)[C@@H](CCc2ccc(O)cc2)NS(=O)(=O)Cc2ccc(N)cc2)cc1 [Compound 30],78000,22940,3.4
N=C(N)c1ccc(CNC(=O)CNC(=O)C(CCc2ccncc2)NS(=O)(=O)Cc2ccc([N+](=O)[O-])cc2)cc1 (stereo not shown) [Compound 31],1900,543,3.5
N=C(N)c1ccc(CNC(=O)CNC(=O)[C@@H](CCc2ccccc2)NS(=O)(=O)Cc2ccc(O)cc2)cc1 [Compound 32],380,105,3.6
N=C(N)c1ccc(CNC(=O)[C@H](CCC(=O)O)NC(=O)[C@@H](CCc2ccncc2)NS(=O)(=O)Cc2ccc(O)cc2)cc1 [Compound 33],100000,27778,3.6
N=C(N)c1ccc(CNC(=O)[C@H](CCC(=O)O)NC(=O)[C@@H](CCc2ccc(O)cc2)NS(=O)(=O)Cc2ccccc2)cc1 [Compound 34],19000,5135,3.7
CCOC(=O)CC[C@H](NC(=O)[C@@H](CCc1ccc(O)cc1)NS(=O)(=O)Cc1ccccc1)C(=O)NCc1ccc(C(=N)N)cc1 [Compound 35],1000,200,5
N=C(N)c1ccc(CNC(=O)CNC(=O)[C@@H](CCc2ccc(O)cc2)NS(=O)(=O)Cc2ccc([N+](=O)[O-])cc2)cc1 [Compound 36],860,165,5.2
N=C(N)c1ccc(CNC(=O)[C@H](CCC(=O)O)NC(=O)C(CCc2ccncc2)NS(=O)(=O)Cc2ccc([N+](=O)[O-])cc2)cc1 (stereo partly shown) [Compound 37],35000,6250,5.6
N=C(N)c1ccc(CNC(=O)CNC(=O)C(CCc2ccncc2)NS(=O)(=O)Cc2ccc(C(=O)O)cc2)cc1 (stereo not shown) [Compound 48],–,–,10
